# From paper PMC7663263 (Molecules, 2020)
# Read-outs that look alike come from different tables or passages of the source.
# Columns and labels:
# [1] = system: TBL3 cells (BL3 infected with T. annulata); assay: Proliferation test on Theileria annulata-infected cells (TBL3); type: cell-based, bovine / Theileria annulata; settings: 0.5 μM
# Description: Theileria annulata culture: The TBL3 cell line was derived by in vitro infection of the spontaneous bovine B-lymphosarcoma cell line BL3 with the Hissar stock of T. annulata. B cell characteristics of the lines have been described. The cells are maintained at 37 °C under 5% CO2, in RPMI medium supplemented with 10% FCS, 25 mM Hepes, 4 mM L-glutamine, 100 μg/mL of streptomycin, 100 IU/mL of penicillin and […] 2-mercapthoethanol.
# Cells were cultured in 12-well plates at an initial density of 200,000 cells per well in duplicate for each condition. […] The cells were cultured in 12-well plates at an initial density of 200,000 cells per well and drug was added every 24 h. To be able to compare the results, a drug-free control was also performed. Cell counting was done at 24, 72 and 96 h using the trypan blue method.
# T. cruzi Tulahuen CL2 = assay: Anti-Chagas activity, T. cruzi on MRC-5 cells; type: cell-based; settings: amastigotes, MRC-5 host cells, 7 days; read-out: Trypanosoma cruzi IC50 (µM) ± SD
# Description: Anti-Chagas activity: T. cruzi Tulahuen CL2 (benznidazole-sensitive, LacZ-reporter strain) was maintained on MRC-5 cells in minimal essential medium (MEM) supplemented with […], 16.5 mM sodium hydrogen carbonate and 5% FCS. In the assay, 4 × 10^3 MRC-5 cells and 4 × 10^4 parasites were added to each well. After incubation at 37 °C for 7 days, parasite growth was assessed by adding the substrate chlorophenol red -D-galactopyranoside. The color reaction was read at 540 nm after 4 h and absorbance values were expressed as a percentage of the blank controls. Benznidazole was included as reference drug.
# [2] = system: adult female B. pahangi worms; assay: Adult in vitro Brugia pahangi motility assay (Worminator); type: cell-based; settings: for Inhibition of Motility (%) Day 1 / Inhibition of Motility (%) Day 2 / Inhibition of Motility (%) Day 3 / Inhibition of Motility (%) Day 6: female B. pahangi, n = 4 worms; for IC50: adult female Brugia pahangi, worminator motility assay, six-point serial dilution
# Description: Adult in vitro Brugia pahangi assay: Adult female B. pahangi worms were kindly provided by Dr. Brenda Beerntsen, University of Missouri, Columbia, MO. Individual female worms were assayed in 500 μL of culture medium (RPMI-1640 with 25 mM HEPES, 2.0 g/L NaHCO3, 5% heat-inactivated FBS and antibiotic/antimycotic solution) in 24-well plates. Worms treated with 1% DMSO served as negative control and there were four replicates per compound. Worms were maintained at 37 °C in a 5% CO2 incubator for the duration of the assay. Individual worm movement was assessed from day 1–6 using the Worminator [55], which reports worm motility as mean movement units (MMU), a measure of pixels displaced. MMUs are then used to calculate percent inhibition of worm motility compared to control worms.
# O. ochengi adult male = assay: Onchocerca ochengi adult male worm motility assay; type: cell-based; settings: 10 μM
# Description: Onchocerca ochengi adult worm assays: For O. ochengi worm assays, subcutaneous nodules containing adult O. ochengi worms were removed from the hides of infected cows collected at abattoirs in Douala, Cameroon. Masses were incubated in 4 mL of complete culture medium (RPMI-1640, 5% newborn calf serum, 200 units/mL penicillin, 200 μg/mL streptomycin and 2.5 μg/mL amphotericin B) in standard 12-well culture plates and maintained in a 37 °C, 5% CO2 incubator overnight during which time the adult males migrated out of the masses while the females remained in the nodules. Compound and control wells (worms in 1% DMSO) were tested in quadruplicate and experiments were repeated twice on different days. Cultures were terminated on day 7. […] Adult female worm viability was assessed on day 7 by the standard MTT/formazan assay in which each nodular mass was placed in a well of a 48-well plate containing 500 μL of 0.5 mg/mL MTT (Sigma-Aldrich) in culture medium. Viability was evaluated visually by the extent to which the female worm mass was stained with MTT. Mean percent inhibition of formazan formation was calculated relative to the negative control worm masses after 7 days in culture.
# Human TrxR = settings: 30 nM enzyme, 20 µM substrate; after 10 min enzyme-NADPH-gold complex preincubation; read-out: IC50 Human TrxR, substrate hTrxC72S; cited from earlier work
# RAW 264.7 macrophages = assay: Cytotoxicity on RAW 264.7 macrophages; type: cell-based, murine; settings: 48 h incubation; read-out: Cytotoxicity on RAW 264.7 Macrophages CC50 (µM) ± SD
# Description: Cytotoxicity was evaluated on RAW 264.7 macrophages that were maintained at 37 °C with 5% CO2 in Dulbecco’s Modified Eagle’s Medium (DMEM, Invitrogen, Toulouse, France) supplemented with 100 U/mL penicillin-streptomycin (Invitrogen) and 10% heat-inactivated fetal bovine serum, as previously described. Briefly, cells were plated in 96-well microplates at a density of 2 × 10^4 cells per well. After incubation for 24 h at 37 °C in 5% CO2, the medium was removed from each well and 100 µL of medium containing 2-fold serial dilutions of compounds was added to each well. After 48 h incubation at 37 °C in 5% CO2, 10 µL of 450 µM resazurin was added to each well and further incubated in the dark for 4 h. Cell viability was determined as described above. The cytotoxicity of the compounds was expressed as CC50.
# [3] = system: Leishmania donovani LV9 intramacrophage amastigotes; assay: L. donovani LV9 intramacrophage amastigotes; type: cell-based; settings: read-out: Leishmania Donovani LV9 Intramacrophage Amastigotes IC50 (µm) ± SD
# Description: In vitro anti-leishmanial evaluation was perfomed on both axenic and intramacrophage L. donovani amastigotes as previously described. […] Briefly, compounds were distributed in 96-well plates using 2-fold dilutions in 100 µL PYG medium. A. castellanii trophozoites were added to each well at 5 × 10^4 amoeba/mL in 200 µL final volume. L. donovani axenic amastigotes were added to each well at 10^6 parasites/mL in 200 µL final volume. After 72 h incubation at 27 °C, 20 µL of 1 mM resazurin was added to each well and further incubated at 27 °C for 8 h for A. castellanii and for 24 h for L. donovani axenic amastigotes. In living cells, resazurin is reduced in resorufin. This conversion is monitored by measuring the absorbance at specific wavelengths of resorufin (570 nm) and resazurin (600 nm) using a microplate reader (Labsystems Multiskan MS, McLean, VA, USA). In this assay, the activity was expressed in IC50. Miltefosine and pentamidine were used as reference drugs. All experiments were performed in three independent experiments.
structure (smiles),measurement,setting,value
"CC(=O)OCC1OC([S][Au][PH]2(c3ccccc3)C(c3ccccn3)=CC=C2c2ccccn2)C(OC(C)=O)C(OC(C)=O)C1OC(C)=O [GoPI-sugar, 1-thio-β-D-glucopyranose 2,3,4,6-tetraacetato-S-Au{1-phenyl-2,5-di(2-pyridyl)phosphole}]",time at which the antiproliferative effect occurred,[1]; TBL3 cells,24 h
same,number of TBL3 cells per well,"[1]; first 24 h, initial density 200,000 cells per well","200,000 cells per well"
same,IC50,T. cruzi Tulahuen CL2,0.56 ± 0.11 µM
same,Inhibition of Motility (%) Day 1,[2]; 1 μM,20%
same,Inhibition of Motility (%) Day 2,[2]; 1 μM,16%
same,Inhibition of Motility (%) Day 3,[2]; 1 μM,22%
same,Inhibition of Motility (%) Day 6,[2]; 1 μM,48%
same,Inhibition of Motility (%) Day 1,[2]; 3 μM,24%
same,Inhibition of Motility (%) Day 2,[2]; 3 μM,41%
same,Inhibition of Motility (%) Day 3,[2]; 3 μM,40%
same,Inhibition of Motility (%) Day 6,[2]; 3 μM,96%
same,Inhibition of Motility (%) Day 1,[2]; 10 μM,91%
same,Inhibition of Motility (%) Day 2,[2]; 10 μM,98%
same,Inhibition of Motility (%) Day 3,[2]; 10 μM,100%
same,Inhibition of Motility (%) Day 6,[2]; 10 μM,99%
same,IC50,[2]; read-out: IC50 (µM) Day 2,2.8 µM
same,IC50,[2]; read-out: IC50 (µM) Day 3,3.9 µM
same,IC50,[2]; read-out: IC50 (µM) Day 6,1.7 µM
same,% Inhibition of Motility O. ochengi Adult Male Day 5,O. ochengi adult male,100%
same,IC50,Human TrxR,4.3 ± 1.6 nM
same,CC50,RAW 264.7 macrophages,4.35 ± 0.04 µM
same,IC50,[3],420 ± 150 nM
